Experimental data as given in patent US20250114430A1, “MODIFIED PEPTIDOMIMETICS AND METHODS OF USE” (The University of North Carolina at Chapel Hill, priority 2021, published 2025).
No end group written: not given here.

Columns and labels:
Orai1 [1] = molecular target: T1, Orai1 (Homo sapiens, UniProt Q96D31); experiment: Dose response of Ca^2+ influx (SOCE), Ca^2+ add back approach, HEK293T cells; type: cell-based; set-up: Endogenous Orai1/store operated Ca^2+ influx have been extensively studied in HEK293T cells; endogenous in cells; host or cells: HEK293T
Experimental: HEK293T cells were cultured in 384 well plates. Cells were then exposed to vehicle or […] ELD607 for 1 h. 100 nM thapsigargin was then added followed by extracellular Ca^2+ to differentiate ER Ca^2+ release and SOCE. n=8-12 cultures per data point.
(§1) ELD607 requires Orai1 expression to inhibit Ca^2+ signaling. […] Using this approach, curves were fitted to the data and the 50% inhibitory concentrations (IC50S) were calculated.

P. aeruginosa [2] = experiment: P. aeruginosa growth in the presence of peptide; type: cell-based; conditions: in vitro
αSMA [3] = experiment: TGFβ-induced myofibroblast differentiation of CCL-210 fibroblasts (αSMA); type: cell-based, human; conditions: CCL-210, 7 days 10 ng/mL TGFβ, then ELD607 for 48 hours
Experimental: FIG. 36A-36C show ELD607 reduces TGFβ-induced myofibroblast formation. FIG. 36A is a schematic showing fibroblast to myofibroblast formation and αSMA deposition. […] Data are mean data from Western blots in normal fibroblasts.
In vitro Methods: Fibroblasts were exposed to 10 nM TFGβ for 3-7 days as indicated. […] Fibroblasts were then fixed in paraformaldehyde, stained with primary a smooth muscle actin (αSMA) antibody, and imaged by confocal microscopy. Myofibroblasts were exposed to ELD607 without any TGFβ pre-treatment. In some cases, Western blotting was used to probe for αSMA.
ELD607 reverses myofibroblast differentiation. Increased alpha smooth muscle actin (αSMA) deposition is a hallmark of damaged IPF lungs, and is a common marker for identifying when fibroblasts turn into myofibroblasts—key drivers of fibrosis, and it is generally considered that less αSMA is beneficial (FIG. 36A). It was then determined whether ELD607 alters myofibroblast formation. The human lung fibroblast cell line CCL-210 was treated for 7 days with 10 ng/mL TGFβ to induce myofibroblast differentiation.

HEK293T cells = experiment: Store operated Ca^2+ influx in HEK293T cells after incubation of peptide in ARDS BAL; type: cell-based
Text: ELD607 is active in ARDS patient immune cells. Pulmonary neutrophilic inflammation and increased lung neutrophil elastase levels are common in ARDS patient lungs. We therefore evaluated whether ELD607 remained stable in BAL samples patients with ARDS caused by bacterial pneumonia. […] (FIG. 27, panel A).

NFAT = experiment: NFAT-GFP relocation to the nucleus in HEK293T cells after stimulation of SOCE; type: cell-based; conditions: thapsigargin
Text: To determine whether ELD607 internalized Orai1, total internal reflection fluorescence (TIRF) microscopy was used to measure Orai1 in the plasma membrane. […] However, ELD607 reduced Orai1 plasma membrane expression by ˜50% (FIG. 26, panels A-B). […] We expressed NFAT-GFP in HEK293T cells and evaluated the ability of ELD607 to attenuate NFAT relocation to the nucleus after stimulation of SOCE by confocal microscopy. ELD607 reduced the percentage of NFAT in the nucleus by greater than 50% (FIG. 26, panels C-D).

[4] = molecular target: T2, Orai1 extracellular peptide 1 (OP1) (Homo sapiens, UniProt Q96D31); experiment: Dynamic light scattering binding to Orai1 extracellular loop peptide OP1; conditions: DLS, Orai1 amino acids 106-119
T2 construct: corresponding to amino acids 106-119 ([…]
Text: Endogenous Orai1/store operated Ca^2+ influx have been extensively studied in HEK293T cells, so this cell type was used to understand ELD607-Orai1 interactions. […] Thapsigargin is a SERCA pump inhibitor that prevents uptake of cytosolic Ca^2+ into the endoplasmic reticulum. Thapsigargin is commonly used to stimulate Orai1/store operated Ca^2+ influx. […] Dynamic light scattering (DLS) was used to evaluate binding of ELD607 to peptides of Orai1 extracellular loops. […] Thus, it was concluded that ELD607 interacts with Orai1.

P. aeruginosa [5] = experiment: P. aeruginosa infection in WT mice, ELD607 versus comparators; type: in vivo; conditions: WT mice infected with P. aeruginosa
Text: We then infected WT mice with P. aeruginosa and treated with ELD607, the Orai1 small molecule antagonist […], dexamethasone or scrambled ELD607.

αSMA [6] = experiment: αSMA deposition in primary myofibroblasts from IPF patients; type: cell-based, human; conditions: primary myofibroblasts from five IPF patients
Experimental: Each pair of point represents paired data from 5 different IPF donors.
In vitro Methods: Fibroblasts were exposed to 10 nM TFGβ for 3-7 days as indicated. Then, ELD607 was added overnight. Fibroblasts were then fixed in paraformaldehyde, stained with primary a smooth muscle actin (αSMA) antibody, and imaged by confocal microscopy. Myofibroblasts were exposed to ELD607 without any TGFβ pre-treatment. In some cases, Western blotting was used to probe for αSMA.

Orai1 [7] = molecular target: T1, Orai1; experiment: Thapsigargin / Ca^2+ add back assay in HEK293T cells with anti-Orai1 shRNA; type: cell-based; set-up: Endogenous Orai1/store operated Ca^2+ influx have been extensively studied in HEK293T cells; endogenous in cells; host or cells: HEK293T
Experimental: HEK293T cells were transfected with anti-Orai1 shRNA for 48 h and the change in Fluo4 fluorescence was measured. Cells were then exposed to vehicle or […] ELD607 for 1 h. Thapsigargin was then added followed by extracellular Ca^2+ to differentiate ER Ca^2+ release and SOCE. n=8 cultures per condition.
as §1

house dust mite allergen = experiment: House dust mite (HDM) allergic lung inflammation model; type: in vivo, mice; conditions: HDM 14 days, 0.5 mg/kg intranasally for 2 days
Experimental: Mice were exposed to HDM allergen for 14 days, with […] ELD100 or […] ELD607 instilled intranasally for 2 days before sacrifice.
ELD607 reduces allergic inflammation. Mice were exposed to house dust mite allergen for 14 days. 0.5 mg/kg ELD100 or ELD607 were instilled intranasally for 2 days before sacrifice.

in vitro = in vitro ADME; conditions: human, serum
Experimental: We injected mice intraperitoneally with E. coli LPS, followed by 0.5 mg/kg ELD607 injected intravenously 1 h later.

T1 sequence (Q96D31 whole entry): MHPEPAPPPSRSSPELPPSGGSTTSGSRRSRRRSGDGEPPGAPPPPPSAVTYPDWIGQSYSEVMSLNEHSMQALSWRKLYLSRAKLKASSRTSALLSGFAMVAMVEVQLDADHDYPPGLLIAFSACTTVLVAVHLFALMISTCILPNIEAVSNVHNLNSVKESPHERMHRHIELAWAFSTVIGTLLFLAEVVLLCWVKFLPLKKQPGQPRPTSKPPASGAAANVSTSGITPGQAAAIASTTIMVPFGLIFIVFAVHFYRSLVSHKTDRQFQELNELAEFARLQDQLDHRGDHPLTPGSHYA

For VHDIVNMLIRG [ELD607, VHDIVNMLIRG], which IC50 (Orai1 [1]; Ca^2+ influx, HEK293T, 100 nM thapsigargin, read-out: IC50 (Molar)) is on record?
The IC50 was 81 nM.

What about the “Bottom (%)” value (Orai1 [1]; fitted curve bottom, text: maximal inhibitions) of the same sequence?
Its value is 37.76%.

And the P. aeruginosa growth (P. aeruginosa [2])?
Its P. aeruginosa growth is “no effect on P. aeruginosa growth”.

What about the “αSMA levels (western blot and immunofluorescence)” value (αSMA [3]) of the same sequence?
The value was “significantly reduced”.

What about the “inhibition of store operated Ca^2+ influx after incubation in ARDS BAL” value (HEK293T cells) of the same sequence?
Its value is “did not prevent ELD607 from inhibiting store operated Ca^2+ influx”.

And the “reduction of the percentage of NFAT in the nucleus” value (NFAT)?
The value was “greater than 50%”.

What about the “interaction with OP1 (Z-average increase)” value [4] of the same sequence?
The value was “significant interactions”.

And the bacterial infections (P. aeruginosa [5])?
Its bacterial infections is “significantly reduced”.

What about the lung macrophage levels (P. aeruginosa [5]) of the same sequence?
Its lung macrophage levels is “increased lung macrophage levels”.

And the neutrophilia (P. aeruginosa [5])?
Its neutrophilia is “significantly reduced”.

And the weight loss (P. aeruginosa [5])?
Its weight loss is “significantly reduced”.

What about the αSMA deposition (αSMA [6]) of the same sequence?
Its αSMA deposition is “significantly reduces αSMA deposition”.

And the “thapsigargin-stimulated Ca^2+ release from the ER” value (Orai1 [7]; absence of extracellular Ca^2+)?
The value was “had no effect on this component”.

And the “effect on Ca^2+ homeostasis after shRNA knockdown of Orai1” value (Orai1 [7]; anti-Orai1 shRNA 48 h)?
Its value is “no longer able to affect Ca^2+ homeostasis”.

And the “Ca^2+ influx” value (Orai1 [7]; extracellular Ca^2+ added back)?
Its value is “reduced Ca^2+ influx”.

What about the BAL eosinophilia (house dust mite allergen) of the same sequence?
The BAL eosinophilia was “significantly reduced”.

And the BAL macrophages (house dust mite allergen)?
The BAL macrophages was “increased BAL macrophages”.

What about the BAL neutrophilia (house dust mite allergen) of the same sequence?
Its BAL neutrophilia is “significantly reduced BAL neutrophilia”.

And the remaining at 4 h (in vitro)?
The remaining at 4 h was 100%.
